# Assay results as given in patent publication US5885786A, “Methods for screening of substances for inhibition of multidrug resistance” (priority 1996, dated 1999).
# “Also recorded” adds a separate entry of the source. Counter-ions that a name gives are not always drawn. Like-named read-outs stand apart in the source and are kept apart here.
# Assays:
# [1] = test system: K562 erytiroleukemia cells; details: Yan et al., 1995; cited from earlier work
# certain animal tumors = details: in vivo; cited from earlier work
# [2] = test system: chronic myelogenous leukemia; details: previously untreated chronic myelogenous leukemia; cited from earlier work
# [3] = test system: lymphomas, particularly Hodgkin's disease; details: cited from earlier work
# [4] = cited from earlier work
# [5] = in vivo; cited from earlier work
# MCF-7-AdrR cells [6] = assay: Metabolism of sphinganine, MCF-7-AdrR cells (TLC charring); assay type: cell-based; details: 5.0 μM sphinganine:BSA, FIG. 4
# Method: (§1) FIG. 4. Metabolism of sphinganine by MCF-7-wt and MCF-7-AdrR cells. Cells, in 100×20 mm culture dishes, were incubated with 5.0 μM sphinganine:BSA (prepared at a 1:1 molar ratio) for the times indicated. Lipids were extracted, a 100 μg lipid aliquot of each sample was resolved by TLC in solvent system II, and the TLC was charred as described in Example I. The data shown are representative of two independent experiments which gave similar results.
# (§2) Lipid Mass Analysis--Cell lipids were analyzed by TLC separation and charring of the chromatogram. Briefly, total cellular lipids were extracted by the method of Bligh and Dyer (1959), and equal aliquots (by weight) from each sample were spotted on TLC plates. The plates were developed using solvent system I or II (see below), air-dried for 1 h and sprayed using a 35% solution of sulfuric acid in water. The lipids were charred by heating in an oven at 180° C. for 30 min, and resulting black bands were visualized and photographed. Bands can be further quantitated by photodensitometric scanning.
# MCF-7-wt cells = assay: Metabolism of sphinganine, MCF-7-wt cells (TLC charring); assay type: cell-based; details: 5.0 μM sphinganine:BSA, FIG. 4
# Method: as §1, §2
# PKC = details: Sachs et al., 1995; cited from earlier work
# [7] = test system: MCF-7-doxorubicin resistant cells; details: Sachs et al., 1995; cited from earlier work
# MCF-7-AdrR cells [8] = assay: Cell proliferation (MTS) assay: adriamycin toxicity and chemosensitization
# Excerpt: FIG. 15A and FIG. 15B. […] FIG. 15B: Glycosylceramide levels in MDR Cells following drug treatment. […] In order to avoid differences in [^3 H]glycosylceramide values which account for cell death, the same amount of total radioactive lipid from each sample was applied to TLC separation.
# FIG. 16A and FIG. 16B. […] FIG. 16A: Effect of PPMP on cellular glycosylceramide levels. […] [^3 H]Glycosylceramide was quantitated as described in the legend to FIG. 9.
# Vehicle (acetone, ethanol) was always added to control (minus drug) wells. The cytotoxic activity of a drug was determined using the Promega CellTiter 96™ AQueous MTS cell proliferation assay kit. Each experimental point was performed in six replicates. MTS/PMS solution (20 μl/well) was aliquoted into all wells, and the cells were incubated for 2-3 h, or until an O.D. of 0.9-1.0 was obtained as a highest reading. Thereafter, absorbence at 490 nm was recorded using an ELISA plate reader (Molecular Devices, San Diego, Calif.).
# [9] = test system: glycosylceramide synthesis in MCF-7-AdrR cells; assay: Glycosylceramide levels in MDR cells following drug treatment, [3H]serine 48 h; assay type: cell-based; details: read-out: diminution in glycosylceramide formation, adriamycin alone
# [10] = test system: OVCAR-3 (MDR ovarian carcinoma); details: clinically relevant concentrations (Rogan et al., 1984); cited from earlier work
# P388 and U937 cells = details: Bose et al., 1995; cited from earlier work
structure (smiles),measurement,setting,value
Cc1cn([C@H]2C[C@H](N=[N+]=[N-])[C@@H](CO)O2)c(=O)[nH]c1=O [3'-azidothymidine],sphingoglycolipid metabolism (in words),[1],altered sphingoglycolipid metabolism
N[C@H](Cc1ccc(N(CCCl)CCCl)cc1)C(=O)O [medphalan],activity against certain animal tumors relative to L-isomer (in words),certain animal tumors,less active
"CS(=O)(=O)OCCCCOS(C)(=O)=O [Busulfan, 1,4-butanediol dimethanesulfonate]",hematologic remission,[2],Approximately 90 % of adults
CC[C@]1(O)C[C@@H]2CN(CCc3c([nH]c4ccccc34)[C@@](C(=O)OC)(c3cc4c(cc3OC)N(C)[C@H]3[C@@](O)(C(=O)OC)[C@H](OC(C)=O)[C@]5(CC)C=CCN6CC[C@]43[C@@H]65)C2)C1 [vinblastine],significant improvement,[3],50 to 90 % of cases
same,"half-life of disappearance from plasma, first","[4]; in vivo, iv",approximately 1 hours
same,"half-life of disappearance from plasma, second","[4]; in vivo, iv",~20 h
same,Cmax,[4]; in vivo,~400 µM
same,distribution in blood cells (in words),[4]; in vivo,extensively concentrated in platelets
same,plasma protein binding (in words),[4]; in vivo,bind to plasma proteins
same,tolerability / toxicity (in words),[5],painful irritation and ulceration
CCCCCCCCCCCCCCC[C@@H](O)[C@@H](N)CO [sphinganine],"glycosylceramide (lipid-1 and -2) synthesis/mass on sphinganine supplement, MCF-7-AdrR (in words)",MCF-7-AdrR cells [6],accelerated synthesis; also recorded: strikingly more pronounced
same,"synthesis of lipid X, MCF-7-wt (in words)",MCF-7-wt cells,synthesis of lipid X increased
CCCCCCCCCCCCCCC[C@H](O)[C@@H](N)CO [safingol],inhibition of PKC activity (in words),PKC,inhibition of PKC activity
same,reversal of MDR (in words),[7],reversal of MDR
"COc1cccc2c1C(=O)c1c(O)c3c(c(O)c1C2=O)C[C@@](O)(C(=O)CO)C[C@@H]3O[C@H]1C[C@H](N)[C@H](O)[C@H](C)O1 [adriamycin, 5,12-Naphthacenedione, (8s-cis)-10-[(3-amino-2,3,6-trideoxy-a-L-lyxo-hexopyranosyl)oxy]-7,8,9,10-tetrahydro-6,8,11-trihydroxy-8-(hydroxyacetyl)-1-methoxy-hydrochloride]","cell death, adriamycin in the presence of tamoxifen","MCF-7-AdrR cells [8]; 5 μM adriamycin + 5.0 μM tamoxifen, 72 h, FIG. 15A",60%
same,cytotoxicity at 5 µM,"MCF-7-AdrR cells [8]; Homo sapiens, 72 h, read-out: cell death, adriamycin alone (maximal cytotoxic effect)",28%
same,effect of the substance alone on cell survival (in words),"MCF-7-AdrR cells [8]; MCF-7-AdrR, alone",minor effect; also recorded: largely without influence
same,inhibition at 2.5 µM,[9],17%
same,resistance of OVCAR-3 to the drug (in words),[10],resistant
same,elimination half-life,"[4]; in vivo, iv",about 30 hr
same,excreted into the urine,[4]; in vivo,a few percent
same,absorption (in words),[4]; oral or unspecified,absorbed poorly
"COc1cccc2c1C(=O)c1c(O)c3c(c(O)c1C2=O)C[C@@](O)(C(C)=O)C[C@@H]3O[C@H]1C[C@H](N)[C@H](O)[C@H](C)O1 [daunorubicin, 5,12-Naphthacenedione, (8S-cis)-8-acetyl-10-[(3-amino-2,3,6-trideoxy-a-L-lyxo-hexanopyranosyl)oxy]-7,8,9,10-tetrahydro-6,8,11-trihydroxy-10-methoxy-, hydrochloride]",ceramide elevation (in words),P388 and U937 cells,stimulates ceramide elevation
same,distribution half-life,"[4]; in vivo, iv",0.75 h
same,elimination half-life,"[4]; in vivo, iv",about 19 hr
same,secreted into the bile,"[4]; in vivo, iv",~40%
same,absorption (in words),"[4]; in vivo, po",poor
